According to patent US20220104493A1, “HERBICIDAL COMPOUNDS” (SYNGENTA CROP PROTECTION AG, priority 2019, published 2022):

Legend:
Assay type in all cases: in vivo
[1] = system: Chenopodium album (CHEAL); assay: Post-emergence efficacy, Method A; settings: 500 g/Ha, 100=total damage to plant, 0=no damage, evaluated after 7 and 14 days, read-out: Control of weed species after post-emergence application, CHEAL
[2] = system: Echinochloa crus-galli (ECHCG); assay: Post-emergence efficacy, Method A; settings: 500 g/Ha, 100=total damage to plant, 0=no damage, evaluated after 7 and 14 days, read-out: Control of weed species after post-emergence application, ECHCG
[3] = system: Lolium perenne (LOLPE); assay: Post-emergence efficacy, Method A; settings: 500 g/Ha, 100=total damage to plant, 0=no damage, evaluated after 7 and 14 days, read-out: Control of weed species after post-emergence application, LOLPE
[4] = system: Digitaria sanguinalis (DIGSA); assay: Post-emergence efficacy, Method A; settings: 500 g/Ha, 100=total damage to plant, 0=no damage, evaluated after 7 and 14 days, read-out: Control of weed species after post-emergence application, DIGSA
[5] = system: Amaranthus palmeri (AMAPA); assay: Post-emergence efficacy, Method A; settings: 500 g/Ha, 100=total damage to plant, 0=no damage, evaluated after 7 and 14 days, read-out: Control of weed species after post-emergence application, AMAPA
[6] = system: Euphorbia heterophylla (EPHHL); assay: Post-emergence efficacy, Method A; settings: 500 g/Ha, 100=total damage to plant, 0=no damage, evaluated after 7 and 14 days, read-out: Control of weed species after post-emergence application, EPHHL
[7] = system: Eleusine indica (ELEIN); assay: Post-emergence efficacy, Method A; settings: 500 g/Ha, 100=total damage to plant, 0=no damage, evaluated after 7 and 14 days, read-out: Control of weed species after post-emergence application, ELEIN
[8] = system: Glycine Max (GLXMA); assay: Post-emergence efficacy, Method B
Method: (§1) Seeds of a variety of test species were sown in standard loam based soil in pots. Plants were cultivated from between 21 and 28 days (post-emergence) under controlled conditions in a glasshouse (at 24/16° C., day/night; 14 hours light; 65% humidity) for warm climate species and (at 20/16° C. day/night; 15 hours light; 65% humidity) for cool climate species.
(§2) The plants were sprayed with an aqueous spray solution derived from dissolving the technical active ingredient formula in a small amount of acetone and a special solvent and emulsifier mixture referred to as IF50 (11.12% Emulsogen EL360 TM+44.44% N-methylpyrrolidone+44.44% Dowanol DPM glycol ether), to create a 50 g/l solution which was then diluted to required concentration using 0.5% or 1% Empicol ESC70 (Sodium lauryl ether sulphate)+1% ammonium sulphate as diluent.
(§3) The delivery of the aqueous spray solution was via a laboratory track sprayer which delivered the aqueous spray composition at a rate of 200 litres per hectare, using a flat fan nozzle (Teejet 11002VS) and an application volume of 200 litre/ha (at 2 bar).
(§4) The test plants were then grown in a glasshouse under controlled conditions (at 24/16° C., day/night; 14 hours light; 65% humidity) for warm climate species and (at 20/16° C. day/night; 15 hours light; 65% humidity) for cool climate species and watered twice daily. After 7 and 14 days the test was evaluated (100=total damage to plant; 0=no damage to plant).
(§5) Brassica napus (BRSNN), Solanum turberosum (SOLTU), Glycine Max (GLXMA), and Helianthus annus (HELAN)

[9] = system: Helianthus annus (HELAN); assay: Post-emergence efficacy, Method B; settings: second set of rows of Table C (evaluated after 7 and 14 days, day not printed)
Method: as §1, §2, §3, §4, §5

[10] = system: Brassica napus (BRSNN); assay: Post-emergence efficacy, Method B
Method: as §1, §2, §3, §4, §5

[11] = system: Solanum turberosum (SOLTU); assay: Post-emergence efficacy, Method B
Method: as §1, §2, §3, §4, §5

[12] = system: Setaria faberi (SETFA); assay: Post-emergence efficacy, Method A; settings: 500 g/Ha, 100=total damage to plant, 0=no damage, evaluated after 7 and 14 days, read-out: Control of weed species after post-emergence application, SETFA
[13] = system: Ipomoea hederacea (IPOHE); assay: Post-emergence efficacy, Method A; settings: 500 g/Ha, 100=total damage to plant, 0=no damage, evaluated after 7 and 14 days, read-out: Control of weed species after post-emergence application, IPOHE
[14] = 50 g/Ha, first set of rows of Table C (evaluated after 7 and 14 days, day not printed)
[15] = 50 g/Ha, second set of rows of Table C (evaluated after 7 and 14 days, day not printed)
[16] = 150 g/Ha, first set of rows of Table C (evaluated after 7 and 14 days, day not printed)
[17] = 150 g/Ha, second set of rows of Table C (evaluated after 7 and 14 days, day not printed)
[18] = 600 g/Ha, first set of rows of Table C (evaluated after 7 and 14 days, day not printed)
[19] = 600 g/Ha, second set of rows of Table C (evaluated after 7 and 14 days, day not printed)

O=S(=O)([O-])C[n+]1ccc(-c2ncns2)cc1 [Compound A4, [4-(1,2,4-thiadiazol-5-yl)pyridin-1-ium-1-yl]methanesulfonate]
pest or weed control at 500 g/ha [1]: 100%
pest or weed control at 500 g/ha [2]: 70%
pest or weed control at 500 g/ha [3]: 80%
pest or weed control at 500 g/ha [4]: 70%
pest or weed control at 500 g/ha [5]: 100%
pest or weed control at 500 g/ha [6]: 100%
pest or weed control at 500 g/ha [7]: 80%
Control after post-emergence application, GLXMA (100=total damage to plant; 0=no damage to plant) [8, 14]: 45
Control after post-emergence application, GLXMA (100=total damage to plant; 0=no damage to plant) [8, 15]: 52
Control after post-emergence application, GLXMA (100=total damage to plant; 0=no damage to plant) [8, 16]: 83
Control after post-emergence application, GLXMA (100=total damage to plant; 0=no damage to plant) [8, 17]: 62
Control after post-emergence application, GLXMA (100=total damage to plant; 0=no damage to plant) [8, 18]: 93
Control after post-emergence application, GLXMA (100=total damage to plant; 0=no damage to plant) [8, 19]: 85
Control after post-emergence application, HELAN (100=total damage to plant; 0=no damage to plant) ([9]; 50 g/Ha): 97
Control after post-emergence application, HELAN (100=total damage to plant; 0=no damage to plant) ([9]; 150 g/Ha): 100
Control after post-emergence application, HELAN (100=total damage to plant; 0=no damage to plant) ([9]; 600 g/Ha): 100
Control after post-emergence application, BRSNN (100=total damage to plant; 0=no damage to plant) [10, 14]: 23
Control after post-emergence application, BRSNN (100=total damage to plant; 0=no damage to plant) [10, 15]: 43
Control after post-emergence application, BRSNN (100=total damage to plant; 0=no damage to plant) [10, 16]: 32
Control after post-emergence application, BRSNN (100=total damage to plant; 0=no damage to plant) [10, 17]: 57
Control after post-emergence application, BRSNN (100=total damage to plant; 0=no damage to plant) [10, 18]: 43
Control after post-emergence application, BRSNN (100=total damage to plant; 0=no damage to plant) [10, 19]: 80
Control after post-emergence application, SOLTU (100=total damage to plant; 0=no damage to plant) [11, 14]: 15
Control after post-emergence application, SOLTU (100=total damage to plant; 0=no damage to plant) [11, 15]: 50
Control after post-emergence application, SOLTU (100=total damage to plant; 0=no damage to plant) [11, 16]: 30
Control after post-emergence application, SOLTU (100=total damage to plant; 0=no damage to plant) [11, 17]: 60
Control after post-emergence application, SOLTU (100=total damage to plant; 0=no damage to plant) [11, 18]: 82
Control after post-emergence application, SOLTU (100=total damage to plant; 0=no damage to plant) [11, 19]: 67
pest or weed control at 500 g/ha [12]: 80%
pest or weed control at 500 g/ha [13]: 100%
